# From patent US12195748B2, “Delivery across cell plasma membranes” (Avectas Limited, priority 2014, dated 2025)
# Entries after “also recorded” stand apart in the source; their conditions may differ.
# How the values were obtained:
# [1] = test system: CHO cells; test: Spray delivery of labelled proteins into CHO cells; format: cell-based, Chinese hamster; details: for delivery of labelled protein into cells: FITC or Alexa-488 label
# Description: A notable application of delivery technology is the intracellular delivery of proteins. Proteins are a very diverse group in terms of their size, shape and chemistry and few methods are currently available for efficient delivery of these molecules. A broad range of proteins of increasing sizes from 18.3 kDa to 443 kDa were labeled with either FITC or Alexa-488 and their delivery by spraying was examined. […] A general trend towards declining delivery efficiencies with increasing size of protein (FIG. 44) was observed.
# [2] = test system: A549 cells; test: Micropipette-mediated delivery of payloads to A549 cells (uptake); format: cell-based, human; details: 24-well plates
# Protocol: FIG. 19 is a graph illustrating Micropipette-mediated delivery of payloads in either 200 μl or 20 μl delivery solution to A549 cells in 24-well plates. Uptake efficiency was measured by flow cytometry (5% m bar) and toxicity was measured by lactate dehydrogenase (LDH) release compared to lysed cells positive control.
# Cells were seeded into 24-well plates on Day 0 such that they were 80-90% confluent on Day 1 when delivery was carried out. […] Cells were incubated for 2 min at room temperature (RT) to facilitate uptake. To further facilitate uptake and prevent cell dehydration, 200 μl 0.5×-PBS was then added and cells were incubated for a further 30 sec. This solution was then removed and 400 μl culture medium was added. The cells were then analyzed by fluorescence microscopy.
# [3] = test system: cells; test: Delivery of molecules to cells, spray apparatus versus micropipette (Examples 2-12); format: cell-based
# Description: Delivery of Molecules. An intranasal mucosal atomization device commercially available from LMA Teleflex of NC, USA under catalogue number MAD300 and including an atomizer emitter was set up as follows: the atomizer emitter was positioned 31 mm from the base of the 24-well plate and above the center point of each circular well of the plate. The atomizer emitter was adjusted to allow a pressure of 1.5 bar. A timer was utilized to dispense spray from the atomizer emitter for a period of 1 second. The atomizer emitter was primed by rinsing three times with Solution A containing molecules to be delivered.
# Each well of the plate was treated as follows: cell culture medium was removed from the well using a micropipette. Optionally, the well was rinsed twice with 250 μL phosphate buffered saline (PBS) using a micropipette. 20 μL of Solution A containing molecules to be delivered was delivered to the cells using the atomizer. The plate was incubated at room temperature for a period of 30 seconds to 2 minutes depending on the size of the molecule to be delivered, following which 250 μL of Solution B was added to the well using a micropipette. The plate was then incubated at room temperature for 30 seconds, at which time Solution B was removed from the well using a micropipette. 500 μL of culture medium was added to the well using a micropipette. […]
# Fluorescence Microscopy. […] Following delivery, the plate was placed onto the stage of a fluorescent microscope (Olympus CKX 41) and the cells were viewed using filters to visualize fluorescence. […]
# Flow Cytometry. […] The cell suspension was loaded into a flow cytometer [Accuri Flow Cytometyer, BD Biosciences] and the fluorescence was analyzed according to manufacturer's instruction.
# Cell Viability. Following delivery, cell viability was assessed using the CellTiter 96® AQueous One Solution Cell Proliferation Assay (MTS) (Promega) according to the manufacturer's instructions. […] 100 μL of solution was removed from the well and placed into a 96-well plate and absorbance was read at 450 nm using a GloMax 96 Microplate luminometer [Promega].
# [4] = test system: A549 cells; test: Incubation of A549 cells in S Buffer (Medepalli conditions); format: cell-based, human; details: 5 min at 4° C.
# Description: A vector-free delivery method was developed based on reversible permeabilisation that would facilitate delivery of payloads into cells in a manner that would retain cell viability and payload functionality. As other groups have done, the following hypothesis was utilized: firstly, permeabilisation could be induced by chemical modification of the cell membrane; secondly, delivery could be enhanced via osmotic pressure brought about by using a hypotonic delivery solution whereby influx of water into the permeabilised cells facilitated influx of a payload and thirdly, cell survival could be enhanced if the hypotonic delivery solution was also buffered and physiological. Based on initial observations, further hypotheses were developed and refined as described later here. For chemical permeabilisation, the most common permeabilising agents are detergents which interact with certain components in cell membranes to create holes (Hapala, I., Crit Rev. Biotech. 1997; 17(2): 105-22). […] (Medepalli K. et al., Nanotechnology 2013; 24(20)). In some examples, potassium acetate is replaced with ammonium acetate in the “S” buffer. They also stated that delivery could be enhanced by adding saponin to the solution. […] Organic solvents such as alcohols can permeabilise cells by dissolving lipid from the cell membrane. […]
# [5] = test system: A549 cells; test: Spray-mediated delivery of payloads to A549 cells (fluorescence microscopy, flow cytometry); format: cell-based, human
# Protocol: Each well of the plate was treated as follows: cell culture medium was removed from the well using a micropipette. Optionally, the well was rinsed twice with 250 μL phosphate buffered saline (PBS) using a micropipette. 20 μL of Solution A containing molecules to be delivered was delivered to the cells using the atomizer. The plate was incubated at room temperature for a period of 30 seconds to 2 minutes depending on the size of the molecule to be delivered, following which 250 μL of Solution B was added to the well using a micropipette. The plate was then incubated at room temperature for 30 seconds, at which time Solution B was removed from the well using a micropipette. 500 μL of culture medium was added to the well using a micropipette. The cells were then returned to a humidified atmosphere with 5% CO^2 at 37° C.
# Fluorescence Microscopy. Fluorescein isothiocyanate (FITC)- and DyLight Phosphoramidite (DY547)-labelled molecules were used in accordance with the manufacturer's instructions. Labelled molecules to be delivered to the cells were added to Solution A and delivered to cells as described above herein. Following delivery, the plate was placed onto the stage of a fluorescent microscope (Olympus CKX 41) and the cells were viewed using filters to visualize fluorescence. Photomicrographs were acquired.
# Flow Cytometry. […] The cell suspension was loaded into a flow cytometer [Accuri Flow Cytometyer, BD Biosciences] and the fluorescence was analyzed according to manufacturer's instruction. […]
# [6] = test system: Jurkat cells; test: Spray delivery into Jurkat suspension cells; format: cell-based; details: spray after removal of supernatant
# Protocol: In this example, the delivery method across cell types was evaluated. […] The cell suspension was placed into a porous cell culture plate insert and a brief gentle vacuum of approximately −0.5 to −0.68 bar was applied for 20-45 sec to remove supernatant before the cells were sprayed (FIG. 41A and FIG. 42).
# [7] = DAPI, phallotoxin and MitoTracker Red together
molecule,measurement,setting,value
ovalbumin: protein labelled with FITC and delivered into CHO cells,delivery of labelled protein into cells,[1],successfully delivered
same,detection of delivered protein with anti-ovalbumin antibody,[1]; immunofluorescence,detected by immunofluorescence
"CC[N+](C)(CC)CCC[n+]1c(-c2ccccc2)c2cc(N)ccc2c2ccc(N)cc21.[I-].[I-] [PI, propidium iodide]",uptake viewed by fluorescent microscopy,[2]; 20 μL delivery solution,apparent at the edge of the well but not in the center; also recorded: apparent in some areas of the well but not in others
same,uptake viewed by fluorescent microscopy,[2]; 200 μL delivery solution,most cells immediately stained positive
same,uptake viewed by fluorescent microscopy,"[2]; 200 μL delivery solution, listed as Propidium iodide",uptake was visible throughout the cell population
same,"delivery rate (percent of cells showing successful delivery), spray compared to micropipette","[3]; Example 3, 150 μM, 20 or 40% ethanol",increases the delivery rate
same,delivery in viable cells,"[3]; Example 3, micropipette, 40% (v/v) ethanol",no delivery of molecules was detected in viable cells
same,simultaneous delivery of two molecules into the cell,"[3]; Example 4, spray, 25% ethanol, same matrix",results in delivery of the molecule into the cell
dextran,uptake,[4],did not observe uptake
ClCc1ccc(C2=c3cc4c5c(c3Oc3c2cc2c6c3CCCN6CCC2)CCC[N+]=5CCC4)cc1.[Cl-] [MitoTracker Red],co-delivery into cells,[5]; [7],successfully co-delivered
same,delivery to suspension cells,[6],successfully delivered
"N=C(N)c1ccc(-c2cc3ccc(C(=N)N)cc3[nH]2)cc1 [DAPI, 4′,6-diamidino-2-phenylindole]",co-delivery into cells,[5]; 10-kDa dextran-Alexa488 and DAPI together,successfully co-delivered
same,co-delivery into cells,[5]; [7],successfully co-delivered
same,delivery to suspension cells,[6],successfully delivered
"catalase: protein labelled with FITC and delivered into CHO cells (protein, UniProt P00432 2-527, looked up, FITC label, protein labelled with FITC and delivered into CHO cells) Catalase: ADNRDPASDQMKHWKEQRAAQKPDVLTTGGGNPVGDKLNSLTVGPRGPLLVQDVVFTDEMAHFDRERIPERVVHAKGAGAFGYFEVTHDITRYSKAKVFEHIGKRTPIAVRFSTVAGESGSADTVRDPRGFAVKFYTEDGNWDLVGNNTPIFFIRDALLFPSFIHSQKRNPQTHLKDPDMVWDFWSLRPESLHQVSFLFSDRGIPDGHRHMNGYGSHTFKLVNANGEAVYCKFHYKTDQGIKNLSVEDAARLAHEDPDYGLRDLFNAIATGNYPSWTLYIQVMTFSEAEIFPFNPFDLTKVWPHGDYPLIPVGKLVLNRNPVNYFAEVEQLAFDPSNMPPGIEPSPDKMLQGRLFAYPDTHRHRLGPNYLQIPVNCPYRARVANYQRDGPMCMMDNQGGAPNYYPNSFSAPEHQPSALEHRTHFSGDVQRFNSANDDNVTQVRTFYLKVLNEEQRKRLCENIAGHLKDAQLFIQKKAVKNFSDVHPEYGSRIQALLDKYNEEKPKNAVHTYVQHGSHLSAREKANL",delivery of labelled protein into cells,[1],successfully delivered
